Results as given in ChEMBL document CHEMBL1127284, “The synthesis of 2,3-dihydro-4(1H)-quinazolinone angiotensin II receptor antagonists” (Bioorg Med Chem Lett, 1994).
pIC50: −log10 of the molar value.

These compounds were tested against T1, Angiotensin II receptor (Rattus norvegicus, UniProt P29089+P25095+P35351) (assay: Concentration required for 50% inhibition of binding against Angiotensin II receptor in the rat adrenal cortex tissue). Conditions: not given.
T1 sequence (P29089 whole entry): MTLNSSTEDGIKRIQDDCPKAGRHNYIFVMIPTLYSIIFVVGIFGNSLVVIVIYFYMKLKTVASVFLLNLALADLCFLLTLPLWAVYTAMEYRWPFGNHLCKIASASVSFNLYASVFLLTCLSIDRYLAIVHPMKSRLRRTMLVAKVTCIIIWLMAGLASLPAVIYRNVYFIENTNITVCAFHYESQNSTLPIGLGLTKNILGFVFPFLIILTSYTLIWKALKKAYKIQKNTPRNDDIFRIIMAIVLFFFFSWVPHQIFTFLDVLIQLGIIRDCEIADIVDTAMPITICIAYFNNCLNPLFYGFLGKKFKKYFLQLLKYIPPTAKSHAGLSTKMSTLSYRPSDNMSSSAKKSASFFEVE
T1 sequence (P25095 whole entry): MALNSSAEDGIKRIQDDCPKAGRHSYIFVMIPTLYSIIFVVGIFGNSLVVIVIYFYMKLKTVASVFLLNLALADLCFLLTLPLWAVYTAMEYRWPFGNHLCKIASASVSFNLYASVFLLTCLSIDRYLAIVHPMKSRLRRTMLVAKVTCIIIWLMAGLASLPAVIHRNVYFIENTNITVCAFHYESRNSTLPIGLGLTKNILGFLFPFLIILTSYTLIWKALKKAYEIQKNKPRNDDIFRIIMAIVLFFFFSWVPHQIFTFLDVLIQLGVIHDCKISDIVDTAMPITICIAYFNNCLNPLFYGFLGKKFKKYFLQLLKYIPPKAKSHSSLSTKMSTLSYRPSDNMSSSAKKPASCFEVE
T1 sequence (P35351 whole entry): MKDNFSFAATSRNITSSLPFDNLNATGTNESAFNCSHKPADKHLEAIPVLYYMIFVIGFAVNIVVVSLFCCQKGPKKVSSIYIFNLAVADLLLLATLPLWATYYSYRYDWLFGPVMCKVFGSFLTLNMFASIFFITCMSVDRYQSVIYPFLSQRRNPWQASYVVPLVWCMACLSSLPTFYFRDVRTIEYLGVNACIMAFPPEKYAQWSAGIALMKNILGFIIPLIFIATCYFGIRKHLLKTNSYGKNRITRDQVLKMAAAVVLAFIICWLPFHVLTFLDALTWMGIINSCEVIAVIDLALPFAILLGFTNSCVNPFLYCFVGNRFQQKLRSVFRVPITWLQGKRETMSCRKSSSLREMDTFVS
Format: tissue-based
For CCCCC1Nc2ccc(Cc3ccccc3)cc2C(=O)N1Cc1ccc(-c2ccccc2-c2nn[nH]n2)cc1 (stereo not given), the IC50 was 3.7 µM.
CCCC1Nc2ccccc2C(=O)N1Cc1ccc(-c2ccccc2-c2nn[nH]n2)cc1 (stereo not given) was tested, and the IC50 was 0.54 µM.
CCCC1N(Cc2ccc(-c3ccccc3-c3nn[nH]n3)cc2)C(=O)c2ccccc2N1CC (stereo not given) showed an IC50 of 7.5 µM.
In the case of CCCCC1Nc2ccc(C(C)C)cc2C(=O)N1Cc1ccc(-c2ccccc2-c2nn[nH]n2)cc1 (stereo not given), the IC50 was 0.09 µM.
For CC1Nc2ccccc2C(=O)N1Cc1ccc(-c2ccccc2-c2nn[nH]n2)cc1 (stereo not given), the IC50 was 90 µM.
CCCCC1Nc2ccc(C(C)(C)OC)cc2C(=O)N1Cc1ccc(-c2ccccc2-c2nn[nH]n2)cc1 (stereo not given) gave an IC50 of 2.7 µM.
Compound CCCCC1N(Cc2ccc(-c3ccccc3-c3nn[nH]n3)cc2)C(=O)c2ccccc2N1C (stereo not given) has an IC50 of 1.1 µM.
In the case of CCCC1N(Cc2ccc(-c3ccccc3-c3nn[nH]n3)cc2)C(=O)c2ccccc2N1Cc1ccccc1 (stereo not given), the IC50 was 100 µM.
Work on CCCCC1Nc2ccc(CC)cc2C(=O)N1Cc1ccc(-c2ccccc2-c2nn[nH]n2)cc1 (stereo not given) yielded an IC50 of 0.37 µM.
With CCCCC1Nc2ccc(C(=O)OC)cc2C(=O)N1Cc1ccc(-c2ccccc2-c2nn[nH]n2)cc1 (stereo not given) the IC50 was 4.1 µM.
CCCC1Nc2ccc(C(C)C)cc2C(=O)N1Cc1ccc(-c2ccccc2-c2nn[nH]n2)cc1 (stereo not given) gave an IC50 of 12 µM.
CCCCC1N(Cc2ccc(-c3ccccc3-c3nn[nH]n3)cc2)C(=O)c2cc(C(C)C)ccc2N1C (stereo not given) gave an IC50 of 0.65 µM.
Work on CCCCC1N(Cc2ccc(-c3ccccc3-c3nn[nH]n3)cc2)C(=O)c2cc(C(C)(C)OC)ccc2N1C (stereo not given) yielded an IC50 of 2 µM.
CCC1Nc2ccc(C)cc2C(=O)N1Cc1ccc(-c2ccccc2-c2nn[nH]n2)cc1 (stereo not given) was tested, and the IC50 was 20 µM.
CCC1Nc2ccc(C(C)C)cc2C(=O)N1Cc1ccc(-c2ccccc2-c2nn[nH]n2)cc1 (stereo not given) showed an IC50 of 45 µM.
With CCC1Nc2ccccc2C(=O)N1Cc1ccc(-c2ccccc2-c2nn[nH]n2)cc1 (stereo not given) the IC50 was 27 µM.
CCCCC1(CCCC)Nc2ccccc2C(=O)N1Cc1ccc(-c2ccccc2-c2nn[nH]n2)cc1 showed an IC50 of 13 µM.
CCCCC1Nc2ccccc2C(=O)N1Cc1ccc(-c2ccccc2-c2nn[nH]n2)cc1 (stereo not given) showed an IC50 of 14 µM.
In the case of CCCC1N(Cc2ccc(-c3ccccc3-c3nn[nH]n3)cc2)C(=O)c2ccccc2N1C (stereo not given), the IC50 was 0.05 µM.

Same assay, conditions: read-out: IC50
CCCCc1nc2ccc(C(C)(C)OC)cc2c(=O)n1Cc1ccc(-c2ccccc2-c2nn[nH]n2)cc1 [CL-329167] showed a pIC50 of 8.22.
